Patent publication US7727511B2, “Agents for imaging soluble a-beta” (priority 2003, dated 2010)

Experiments:
beta-amyloid fibrils = molecular target: T1, beta-amyloid fibrils (Homo sapiens, UniProt P05067); assay: Ex vivo fluorescent binding assay, pre-formed fibrils on naive rat brain sections; conditions: 50 μM probe, naive rat brain section, fluorescence microscopy
T1 construct: Lyophilized human beta-amyloid 1-40 peptide (Catalog number H-1194, Bachem); purchased Bachem H-1194; host or cells: synthetic peptide
T1 sequence (P05067 672-711 limits assumed): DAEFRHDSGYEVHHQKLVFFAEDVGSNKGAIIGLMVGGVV
Experimental: B. Insoluble A-beta (1-40) fibril formation: Lyophilized human beta-amyloid 1-40 peptide (Catalog number H-1194, Bachem) was solubilized with HFIP to produce a dry clear film following the process described above for beta-amyloid 1-42. The clear film of beta-amyloid 1-40 was diluted with distilled water to achieve a 6 mg/mL concentration. […] The clear solution was diluted to 1 mg/mL with PBS, pH 7.4 to obtain a final concentration of 1 mg/mL beta-amyloid 1-40, and then incubated at 37° C. on an orbital shaker at 200 RPM for 4 days. A cloudy solution was produced, and the fibril production was confirmed by measuring changes in fluorescence of Thioflavin T, as well as by atomic force microscopy and transmission electron microscopy. […]
(§1) A 1/100th dilution of the secondary antibody Alexa Fluor 594-goat anti-mouse IgG (Molecular Probes) in PBS was applied onto the slides, and incubated at room temperature for 1.5 hours. […] Microscopic examination and imaging was performed using a Leica wide-field fluorescence microscope using filter cube A (band pass 340-380 nm with a 400 nm dichroic mirror and a long pass 400 nm suppression filter) for 49b, cube E4 (band pass 436 nm with 455 dichroic mirror and a long pass 470 nm suppression filter) for Thioflavin T, and TX2 (band pass 520-600 nm with 595 nm dichroic mirror and 645/75 band pass suppression filter) for 6E10 immunostaining. […]

[1] = molecular target: beta-amyloid 1-40 monomers (Homo sapiens, UniProt P05067); assay: Ex vivo fluorescent binding assay, monomers on naive rat brain sections; conditions: data not shown
beta-amyloid 1-40 monomers, sequence (P05067 672-711 limits assumed): as above
Experimental: (§2) Fresh-frozen tissue sections of Sprauge-Dawley naïve rat brain (Taconic) 10 microns in thickness were fixed with 10% formalin in PBS. Each section of the rat brain was then embedded in paraffin, an optional step that increases the shelf life of the sample. Pre-formed soluble oligomers (100 μM), fibrils (100 μM), or monomers were applied onto tissues, and the slides incubated in a humidified chamber for two hours at 37° C. The slides were washed with PBS three times, then incubated with blocking buffer consisting of 10% normal goat serum in 3% BSA in PBS. To verify the presence of beta-amyloid, 100 μL of a 1/250th dilution of anti-beta-amyloid antibody, 6E10 (Signet Laboratories) was applied onto the tissues. The slides were incubated for 1.5 hours at room temperature or for 45 mins at 37° C. 1 mM stock solutions of 49b and Thioflavin T were prepared in 50% ethanol. The probes were diluted to 50 μM in blocking buffer. […] Microscopic examination and imaging was performed using a Leica wide-field fluorescence microscope using filter cube A (band pass 340-380 nm with a 400 nm dichroic mirror and a long pass 400 nm suppression filter) for 49b, cube E4 (band pass 436 nm with 455 dichroic mirror and a long pass 470 nm suppression filter) for Thioflavin T, and TX2 (band pass 520-600 nm with 595 nm dichroic mirror and 645/75 band pass suppression filter) for 6E10 immunostaining.

[2] = molecular target: beta-amyloid 1-42 monomers (Homo sapiens, UniProt P05067); assay: as above; conditions: data not shown
beta-amyloid 1-42 monomers, sequence (P05067 672-713 limits assumed): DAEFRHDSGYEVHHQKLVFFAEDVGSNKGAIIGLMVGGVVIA
Experimental: as §2

[3] = molecular target: T2, beta-amyloid soluble oligomers (Homo sapiens, UniProt P05067); assay: Ex vivo fluorescent binding assay, pre-formed soluble oligomers on naive rat brain sections; conditions: 50 μM probe, naive rat brain section, fluorescence microscopy
T2 construct: 1 mg of human beta-amyloid 1-42 (H-5642, Bachem); purchased Bachem H-5642; host or cells: synthetic peptide
T2 sequence (P05067 672-713 limits assumed): as above
Experimental: A. 1 mg of human beta-amyloid 1-42 (H-5642, Bachem) and 500 uL of 1,1,1,3,3,3 hexafluoro-2-propanol (HFIP) (Aldrich) were chilled in separate bottles on ice for 30 mins. Cold beta-amyloid 1-42 was solubilized with cold HFIP. The mixture was incubated for 1 hr at room temperature until it turned clear. The resulting solution was then dried to a film under vacuum. The film was dissolved again in cold HFIP and incubated another 1 hr at room temperature. The resulting solution was separated into aliquots in several microcentrifuge tubes. HFIP was removed under vacuum, and the films were stored at −20° C. until use. […]
as §1

staining of immobilized fibrils (beta-amyloid fibrils): No staining was observed
staining of beta-amyloid 1-40 monomers [1]: did not stain
staining of beta-amyloid 1-42 monomers [2]: did not stain
Structure (SMILES): O=Cc1ccc(-c2oc3ccccc3c2CO)o1 [Compound 49b, 2-(2-formyl-5-furanyl)-3-hydroxymethyl benzofuran]
staining of immobilized oligomers [3]: clear staining of oligomers with low background
